In article PMC12186253, “Grafted Coiled-Coil Peptides as Multivalent Scaffolds for Protein Recognition” (ACS Chemical Biology, 2025):

Experiments:
[1] = target: T1, FAM-Ahx-BID/MCL-1 complex (Homo sapiens, UniProt Q07820); test: Fluorescence anisotropy competition assay, FAM-Ahx-BID/MCL-1; type: binding
T1 construct: residues 172 – 327; His6-SUMO (N, cleaved yes); made in house; host or cells: E. coli BL21-Gold (pET28a)
Excerpt: (1 picture or pasted object on this page, not shown here) […]

[2] = CD thermal unfolding of individual components (peptide or protein alone); type: physicochemical; conditions: CD at 222 nm, 5-85 °C, 20 °C/h; 25 μM in 20 mM phosphate, 100 mM NaCl, pH 7.4
Experimental: CD spectroscopy was used to investigate the secondary structures and thermal stabilities of the designed peptides alone and in the presence of MCL-1.
prepared at 200 – 500 µM in deionized water from solid peptides) were diluted into phosphate
buffer (20 mM phosphate, 100 mM NaCl, pH 7.4) to a final concentration of 25 µM for individual
components, and at a 1:1 ratio (final concentration of all components set as 50 µM for
homomeric species and 75 µM for heterodimeric complex with MCL-1, or 1:1:1 ratio) of the
number of binding sites on the coiled-coil peptides to BH3 binding domain on the protein.
Wavelength spectra were collected (average of 5 scans, from 190 – 300 nm) to evaluate
secondary structure of the individual components and the peptide:protein complexes at 20 °C.
Thermal unfolding experiments monitored the α helical minima at 222 nm from 5 – 85 °C with
a heating ramp of 20 °C/h , and Tm was calculated from the mid -point of unfolding transitions.
A background spectrum of the buffer alone was also collected and subtracted from raw sample
ellipticity values during data conversion.
Data were collected on an APP Chirascan CD spectropolarimeter using 1 mm pathlength
quartz cuvettes. Raw ellipticity data w ere converted to mean residue ellipticity (MRE) using
MRE = (([θ]λ – [θ]0) x Mw) / (n x l x c) […]
curves, the fraction folded was calculated with the following equation […]

T1 sequence (Q07820 172-327, one chain of several): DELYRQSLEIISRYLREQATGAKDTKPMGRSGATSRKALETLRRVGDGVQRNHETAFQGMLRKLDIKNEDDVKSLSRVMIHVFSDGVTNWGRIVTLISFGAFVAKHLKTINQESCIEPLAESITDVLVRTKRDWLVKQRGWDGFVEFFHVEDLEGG

| Substance | IC50 [1] | Tm (thermal unfolding midpoint), component alone [2] |
| --- | --- | --- |
| Ac-GELLAIKQELLRIIGDLVAIKQELLNIKQGYG-NH2 [CC-Tet_E1] | 7.4 ± 0.8 µM |  |
| Ac-GEILALKQEILRLIGDNVALKQEILNLKQGYG-NH2 [CC-Di_E1] | 0.8 ± 0.1 µM |  |
| Ac-GEILAIKQEILRIIGDNVAIKQEILNIKQGYG-NH2 [CC-Tri_E1] | 68 ± 16 µM |  |
| MCL-1: α-helix-binding antiapoptotic target protein, residues 172 – 327, expressed in E. coli |  | 62 °C |
